# Entries after “also recorded” stand apart in the source; their conditions may differ.
# What was measured:
# Cryptococcus neoformans [1] = test: Cell division / growth by cell counting in rich versus slow growth (PUD) medium; assay type: cell-based; conditions: 0, 50, 100 mM
# Description: Left panel: C. neoformans cells were grown in rich medium (YEP+2% (w/v) Dextrose) with 0 mM (black), 50 mM (gray), and 100 mM (dotted) concentrations of Validamycin A. Cells were counted each hour for 6 hours and relative growth per mL was assessed. Right panel: C. neoformans cells were grown for 24 hours in PUD media and then dosed with Validamycin A. Cells were grown in slow growth medium (PUD) with 0 mM (black), 50 mM (gray), and 100 mM (dotted) concentrations of Validamycin A for 7 days and then counted at time intervals shown. Media was changed every 24 hours to fresh media containing the indicated concentration of drug.
# (§1) Here, we determined whether a trehalose-mimetic compound (Validamycin A) produced by a Streptomyces bacterium, could target the trehalose pathway in S. cerevisiae and in C. neoformans, and inhibit their cell division in sub-optimal growth conditions.
# Cryptococcus neoformans [2] = test: Plating assays (colony forming units) after exposure under slow growth conditions; assay type: cell-based
# From the text: as §1
# Candida albicans = conditions: rich medium; reference [14]; cited from earlier work
compound,measurement,setting,value
OCC1=C[C@@H](N[C@H]2C[C@H](CO)[C@@H](O[C@H]3O[C@@H](CO)[C@H](O)[C@@H](O)[C@@H]3O)[C@H](O)[C@H]2O)[C@H](O)[C@@H](O)[C@@H]1O [Validamycin A],effect on division rates / growth,"Cryptococcus neoformans [1]; optimal growth conditions, rich medium (YEPD+2% (w/v) Dextrose), counted each hour for 6 hours",no effect; also recorded: not rich medium
same,effect on division rates / growth,"Cryptococcus neoformans [1]; slow growth conditions, PUD medium (PBS, 5 g/L Urea, 0.1% (w/v) dextrose; mimics cerebral spinal fluid), 7 days",severely inhibited; also recorded: inhibited in slow growth medium
same,colony forming units,Cryptococcus neoformans [2]; cells exposed under slow growth conditions (PUD medium),substantially reduced
same,fungicidal activity (plating assays),Cryptococcus neoformans [2]; slow growth conditions (PUD medium),fungicidal
same,efficacy as an antifungal agent against C. albicans,Candida albicans,not effective

# — patent US11078515B2, “Methods for identifying targets for antimicrobial and antiproliferative compounds and compositions therefrom” (MIMETICS, LLC, priority 2015, dated 2021)
